Experimental data reported in patent US20070004660A1, “Synergistic Modulation of Flt3 Kinase Using Alkylquinolines and Alkylquinazolines” (priority 2005, published 2007).

Key:
[1] = biological target: T1, isolated kinase domain of the human FLT3 receptor (a.a. 571-993) (Homo sapiens, UniProt P36888); assay: FLT3 fluorescence polarization kinase assay; assay type: biochemical; settings: 150 uM ATP; uncertainty ±10%
T1 construct: human FLT3 receptor (a.a. 571-993)
T1 sequence (P36888 571-993): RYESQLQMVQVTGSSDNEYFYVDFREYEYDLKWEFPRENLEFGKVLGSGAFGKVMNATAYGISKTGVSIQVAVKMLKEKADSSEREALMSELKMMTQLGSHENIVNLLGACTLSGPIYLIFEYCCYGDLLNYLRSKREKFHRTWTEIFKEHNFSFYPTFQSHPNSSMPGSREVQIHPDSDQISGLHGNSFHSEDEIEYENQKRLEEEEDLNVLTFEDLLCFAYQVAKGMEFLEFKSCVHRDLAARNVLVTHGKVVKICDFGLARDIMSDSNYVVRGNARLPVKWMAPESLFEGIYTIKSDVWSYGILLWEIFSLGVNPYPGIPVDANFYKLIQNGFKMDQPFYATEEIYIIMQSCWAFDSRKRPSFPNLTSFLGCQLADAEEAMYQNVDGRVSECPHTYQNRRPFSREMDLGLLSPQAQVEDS

MV4-11 cells = assay: Inhibition of MV4-11 cell proliferation (CellTiterGlo, 72 h); assay type: cell-based; settings: Homo sapiens; 72 h growth inhibition; uncertainty ±20%

| SMILES | IC50 [1] | IC50 (MV4-11 cells) |
| --- | --- | --- |
| COc1cc2ncnc(C3CCN(C(=O)Nc4ccc(C5CCN(C(=O)OC(C)(C)C)CC5)cc4)CC3)c2cc1OC [Example 63, 4-(4-{[4-(6,7-Dimethoxy-quinazolin-4-yl)-piperidine-1-carbonyl]-amino}-phenyl)-piperidine-1-carboxylic acid tert-butyl ester] | 2000 nM | 4100 nM |
| CC(C)Oc1ccc(NC(=O)N2CCC(c3ncnc4cc(OCCCNS(C)(=O)=O)ccc34)CC2)cc1 [Example 65, 4-[7-(3-Methanesulfonylamino-propoxy)-quinazolin-4-yl]-piperidine-1-carboxylic acid (4-isopropoxy-phenyl)-amide] | 19 nM | 27 nM |
| CS(=O)(=O)NCCCOc1ccc2c(C3CCN(C(=O)Nc4ccc(N5CCOCC5)cc4)CC3)ncnc2c1 [Example 66, 4-[7-(3-Methanesulfonylamino-propoxy)-quinazolin-4-yl]-piperidine-1-carboxylic acid (4-morpholin-4-yl-phenyl)-amide] | 18 nM | 14 nM |
| CC(C)Oc1ccc(NC(=O)N2CCC(c3ncnc4cc(OCCCN5CCCC5=O)ccc34)CC2)cc1 [Example 67, 4-{7-[3-(2-Oxo-pyrrolidin-1-yl)-propoxy]-quinazolin-4-yl}-piperidine-1-carboxylic acid (4-isopropoxy-phenyl)-amide] | 3 nM | 9 nM |
| O=C1CCCN1CCCOc1ccc2c(C3CCN(C(=O)Nc4ccc(N5CCOCC5)cc4)CC3)ncnc2c1 [Example 68, 4-{7-[3-(2-Oxo-pyrrolidin-1-yl)-propoxy]-quinazolin-4-yl}-piperidine-1-carboxylic acid (4-morpholin-4-yl-phenyl)-amide] | 37 nM | 30 nM |
| COc1cc2ncnc(C3CCN(C(=O)Nc4ccc(OC5CCCC5)nc4)CC3)c2cc1OC [Example 69, 4-(6,7-Dimethoxy-quinazolin-4-yl)-piperidine-1-carboxylic acid (6-cyclopentyloxy-pyridin-3-yl)-amide] | 76 nM | 59 nM |
| O=C1CCCN1CCCOc1ccc2c(C3CCN(C(=O)Nc4ccc(N5CCOCC5)nc4)CC3)ncnc2c1 [Example 72, 4-{7-[3-(2-Oxo-pyrrolidin-1-yl)-propoxy]-quinazolin-4-yl}-piperidine-1-carboxylic acid (6-morpholin-4-yl-pyridin-3-yl)-amide] | 27 nM | 54 nM |
| CN1CCN(CCCOc2ccc3c(C4CCN(C(=O)Nc5ccc(N6CCOCC6)cc5)CC4)ncnc3c2)CC1 [Example 73, 4-{7-[3-(4-Methyl-piperazin-1-yl)-propoxy]-quinazolin-4-yl}-piperidine-1-carboxylic acid (4-morpholin-4-yl-phenyl)-amide] | 3 nM | 40 nM |
| O=C1CCCN1CCOc1ccc2c(C3CCN(C(=O)Nc4ccc(N5CCCC5)cc4)CC3)ncnc2c1 [Example 74, 4-{7-[2-(2-Oxo-pyrrolidin-1-yl)-ethoxy]-quinazolin-4-yl}-piperidine-1-carboxylic acid (4-pyrrolidin-1-yl-phenyl)-amide] | 1 nM | 40 nM |
| O=C(Nc1ccc(N2CCOCC2)cc1)N1CCC(c2ncnc3cc(OCCCN4CCCCC4)ccc23)CC1 [Example 75] | 49 nM | 70 nM |
| CC(C)Oc1ccc(NC(=O)N2CCC(c3ncnc4ccc(OCCCN5CCN(C)CC5)cc34)CC2)cc1 [Example 76, 4-{6-[3-(4-Methyl-piperazin-1-yl)-propoxy]-quinazolin-4-yl}-piperidine-1-carboxylic acid (4-isopropoxy-phenyl)-amide] | 251 nM | 179 nM |
| O=C(Nc1ccc(N2CCOCC2)cc1)N1CCC(c2ncnc3cc(OCCCO)ccc23)CC1 [Example 77, 4-[7-(3-Hydroxy-propoxy)-quinazolin-4-yl]-piperidine-1-carboxylic acid (4-morpholin-4-yl-phenyl)-amide] | 103 nM | 139 nM |
| COCCCOc1ccc2c(C3CCN(C(=O)Nc4ccc(N5CCOCC5)cc4)CC3)ncnc2c1 [Example 78, 4-[7-(3-Methoxy-propoxy)-quinazolin-4-yl]-piperidine-1-carboxylic acid (4-morpholin-4-yl-phenyl)-amide] | 225 nM | 81 nM |
| CC(C)Oc1ccc(NC(=O)N2CCC(c3ncnc4cc(OCCN5CCOC5=O)ccc34)CC2)cc1 [Example 79, 4-{7-[2-(2-Oxo-oxazolidin-3-yl)-ethoxy]-quinazolin-4-yl}-piperidine-1-carboxylic acid (4-isopropoxy-phenyl)-amide] | 58 nM | 44 nM |
| CN1CCN(CCCOc2ccc3c(C4CCN(C(=O)Nc5ccc(N6CCOCC6)nc5)CC4)ncnc3c2)CC1 [Example 80, 4-{7-[3-(4-Methyl-piperazin-1-yl)-propoxy]-quinazolin-4-yl}-piperidine-1-carboxylic acid (6-morpholin-4-yl-pyridin-3-yl)-amide] | 4 nM | 52 nM |
| CN1CCN(CCCOc2ccc3c(C4CCN(C(=O)Nc5ccc(N6CCOCC6)c(F)c5)CC4)ncnc3c2)CC1 [Example 81, 4-{7-[3-(4-Methyl-piperazin-1-yl)-propoxy]-quinazolin-4-yl}-piperidine-1-carboxylic acid (3-fluoro-4-morpholin-4-yl-phenyl)-amide] | 7 nM | 70 nM |
| CN1CCN(CCCOc2ccc3c(C4CCN(C(=O)Nc5ccc(OC6CCCC6)nc5)CC4)ncnc3c2)CC1 [Example 82, 4-{7-[3-(4-Methyl-piperazin-1-yl)-propoxy]-quinazolin-4-yl}-piperidine-1-carboxylic acid (6-cyclopentyloxy-pyridin-3-yl)-amide] | 1 nM | 18 nM |
| O=C1CCCN1CCOc1ccc2c(C3CCN(C(=O)Nc4ccc(N5CCOCC5)nc4)CC3)ncnc2c1 [Example 83, 4-{7-[2-(2-Oxo-pyrrolidin-1-yl)-ethoxy]-quinazolin-4-yl}-piperidine-1-carboxylic acid (6-morpholin-4-yl-pyridin-3-yl)-amide] | 20 nM | 112 nM |
| O=C1CCCN1CCOc1ccc2c(C3CCN(C(=O)Nc4cnc(N5CCCC5)nc4)CC3)ncnc2c1 [Example 84, 4-{7-[2-(2-Oxo-pyrrolidin-1-yl)-ethoxy]-quinazolin-4-yl}-piperidine-1-carboxylic acid (2-pyrrolidin-1-yl-pyrimidin-5-yl)-amide] | 41 nM | 74 nM |
| O=C1CCCN1CCOc1ccc2c(C3CCN(C(=O)Nc4ccc(N5CCOCC5)cc4)CC3)ncnc2c1 [Example 85, 4-{7-[2-(2-Oxo-pyrrolidin-1-yl)-ethoxy]-quinazolin-4-yl}-piperidine-1-carboxylic acid (4-morpholin-4-yl-phenyl)-amide] | 27 nM | 58 nM |
| CS(=O)(=O)NCCCOc1ccc2c(C3CCN(C(=O)Nc4ccc(N5CCCC5)nc4)CC3)ncnc2c1 [Example 86, 4-[7-(3-Methanesulfonylamino-propoxy)-quinazolin-4-yl]-piperidine-1-carboxylic acid (6-pyrrolidin-1-yl-pyridin-3-yl)-amide] | 1 nM | 17 nM |
| CS(=O)(=O)NCCCOc1ccc2c(C3CCN(C(=O)Nc4ccc(N5CCOCC5)nc4)CC3)ncnc2c1 [Example 87, 4-[7-(3-Methanesulfonylamino-propoxy)-quinazolin-4-yl]-piperidine-1-carboxylic acid (6-morpholin-4-yl-pyridin-3-yl)-amide] | 32 nM | 69 nM |
| CS(=O)(=O)NCCCOc1ccc2c(C3CCN(C(=O)Nc4ccc(OC5CCCC5)nc4)CC3)ncnc2c1 [Example 88, 4-[7-(3-Methanesulfonylamino-propoxy)-quinazolin-4-yl]-piperidine-1-carboxylic acid (6-cyclopentyloxy-pyridin-3-yl)-amide] | 2 nM | 37 nM |
| O=C1CCCN1CCCOc1ccc2c(C3CCN(C(=O)Nc4ccc(N5CCCC5)nc4)CC3)ncnc2c1 [Example 89, 4-{7-[3-(2-Oxo-pyrrolidin-1-yl)-propoxy]-quinazolin-4-yl}-piperidine-1-carboxylic acid (6-pyrrolidin-1-yl-pyridin-3-yl)-amide] | 2 nM | 24 nM |
| O=C1CCCN1CCCOc1ccc2c(C3CCN(C(=O)Nc4cnc(N5CCCC5)nc4)CC3)ncnc2c1 [Example 90, 4-{7-[3-(2-Oxo-pyrrolidin-1-yl)-propoxy]-quinazolin-4-yl}-piperidine-1-carboxylic acid (2-pyrrolidin-1-yl-pyrimidin-5-yl)-amide] | 73 nM | 187 nM |
| O=C(Nc1ccc(N2CCOCC2)nc1)N1CCC(c2ncnc3cc(OCCN4CCOC4=O)ccc23)CC1 [Example 91, 4-{7-[2-(2-Oxo-oxazolidin-3-yl)-ethoxy]-quinazolin-4-yl}-piperidine-1-carboxylic acid (6-morpholin-4-yl-pyridin-3-yl)-amide] | 3 nM | 98 nM |
| O=C(Nc1ccc(N2CCCC2)nc1)N1CCC(c2ncnc3cc(OCCN4CCOC4=O)ccc23)CC1 [Example 92, 4-{7-[2-(2-Oxo-oxazolidin-3-yl)-ethoxy]-quinazolin-4-yl}-piperidine-1-carboxylic acid (6-pyrrolidin-1-yl-pyridin-3-yl)-amide] | 0.2 nM | 21 nM |
| CC(C)Oc1ccc(NC(=O)N2CCC(c3ncnc4cc(OCC5CCN(C)CC5)ccc34)CC2)cc1 [Example 93, 4-[7-(1-Methyl-piperidin-4-ylmethoxy)-quinazolin-4-yl]-piperidine-1-carboxylic acid (4-isopropoxy-phenyl)-amide] | 0.2 nM | 9 nM |
